# Reference: ChEMBL document CHEMBL1153321, “Approaches to the simultaneous inactivation of metallo- and serine-beta-lactamases” (Bioorg Med Chem Lett, 2009)
# Key:
# [1] = Inhibition of recombinant GIM-1
# [2] = Inhibition of recombinant VIM-2
Structure (SMILES),IC50 [1] [µM],IC50 [2] [µM]
CC(=O)OCC1=C(C(=O)O)N2C(=O)[C@@H](N(O)C=O)[C@H]2SC1,0.3,10
CC(=O)OCC1=C(C(=O)O)N2C(=O)/C(=N/O)[C@H]2SC1,15,10
CC(=O)OCC1=C(C(=O)O)N2C(=O)/C(=N/O)[C@H]2S(=O)(=O)C1,170,270
CC1=C(C(=O)O)N2C(=O)/C(=N/O)[C@H]2S(=O)(=O)C1,> 500,25
CC(=O)OCC1=C(C(=O)O)N2C(=O)[C@@H](NO)[C@H]2SC1,2,9
CC(=O)OCC1=C(C(=O)O)N2C(=O)[C@@H](N(O)C(=O)Cc3ccccc3)[C@H]2SC1,0.3,2
CC(=O)OCC1=C(C(=O)O)N2C(=O)[C@@H](NC=O)[C@H]2SC1,47,35
